Experimental data reported in patent EP0051773A1, “Penicillins, their salts, process for their preparation and pharmaceutical compositions containing them” (Dr. Karl Thomae GmbH, priority 1980, dated 1982).
≈ marks a conversion by molar mass, not a printed value.

Experiments:
Test in all cases: serial dilution test in microtiter system (bacteriostasis, MIC)
Type in all cases: cell-based
[1] = test system: Klebsiella pneumoniae ATCC 10 031; conditions: ATCC10, liquid medium, 18 to 20 h at 37°C, read-out: MHK-Werte Kl. pneum. ATCC 10 031
Description: (§1) Für die Untersuchungen wurde die Methode des Reihenverdünnungstestes im Mikrotitersystem angewandt. Die Prüfung der Substanzen auf Bakteriostase erfolgte in flüssigem Medium. Es wurde die Bakteriostasewirkung bei folgenden Konzentrationen untersucht.
(§2) Es wurde ein Nährboden folgender Zusammensetzung benutzt: 10 g Pepton, 8 g Fleischextrakt-Oxoid, 3 g Natriumschlorid, 2 g sek. Natriumphosphat werden mit dest. Wasser auf 1000 ml aufgefüllt (pH 7,2-7,4). Lediglich bei der Testung gegen Streptokokken wurde 1% Glucose hinzugefügt. Das Alter der Primärkulturen betrug etwa 20 Stunden. Die Einstellung der Keimsuspension erfolgte am Photometer (nach "Eppendorf") (Reagenzglas-Durchmesser 14 mm, Filter 546 nm) anhand der Trübung einer Bariumsulfat-Vergleichssuspension, die durch eine Bariumsulfat-Aufschwemmung erzeugt wurde, welche durch die Zugabe von 3,0 ml 1%ige Bariumchloridlösung in 97 ml 1%ige Schwefelsäure entstand. Nach der Einstellung wurden Streptococcus Aronson im Verhältnis 1:15 und die übrigen Testkeime im Verhältnis 1:1500 mit einer Kochsalzlösung weiter verdünnt.
(§3) 16 mg der jeweiligen Substanz wurden in 10 ml-Meßkolben eingewogen und mit dem Lösungsmittel bis zur Marke aufgefüllt. Die weitere Verdünnungsreihe wurde mit destilliertem Wasser oder dem jeweiligen Lösungsmittel hergestellt.
(§4) Die Vertiefungen der Mikrotiterplatten wurden mit 0,2 ml Nährmedium, 0,01 ml der entsprechenden Substanzverdünnung und mit einem Tropfen Keimsuspension (0,01 ml) beschickt und 18 bis 20 Stunden bei 37°C bebrütet. Eine Lösungsmittelkontrolle wurde stets mitgeführt.
(§5) Die Ablesung wurde makroskopisch vorgenommen, wobei die jeweilige Grenkonzentration (= niedrigste noch bakteriostatisch wirksame Konzentration) ermittelt wurde.
(§6) Als Testorganismen wurden benützt: - Staphylococcus aureus SG 511, Escherichia coli ATCC 11 775, Pseudomonas aeruginosa Hamburgensis und Walter, Serratia marcescens ATCC 13 880, Klebsiella pneumoniae ATCC 10 031 und BC 6, Proteus mirabilis Hamburgensis, Proteus rettgeri BC 7 und Enterobacter cloacae ATCC 13 047.
(§7) In der folgenden Tabelle 2 sind die ermittelten minimalen Hemmkonzentrationen (MIC) für typische Vertreter der erfindungsgemäßen Verbindungen aufgeführt, wobei sich die Ziffern auf die Penicilline der Tabelle 1 Seite 18 beziehen.

[2] = test system: Enterobacter cloacae ATCC 13 047; conditions: ATCC13, liquid medium, 18 to 20 h at 37°C, read-out: MHK-Werte Eb. cloacae 13 047
Description: as §1, §2, §3, §4, §5, §6, §7

[3] = test system: Serratia marcescens ATCC 13 880; conditions: ATCC13, liquid medium, 18 to 20 h at 37°C, read-out: MHK-Werte Serr. marcesc. ATCC 13 880
Description: as §1, §2, §3, §4, §5, §6, §7

[4] = test system: Pseudomonas aeruginosa Walter; conditions: liquid medium, 18 to 20 h at 37°C, read-out: MHK-Werte Pseud. aerug. Walter
Description: as §1, §2, §3, §4, §5, §6, §7

[5] = test system: Proteus mirabilis Hamburgensis; conditions: liquid medium, 18 to 20 h at 37°C, read-out: MHK-Werte Prot. mir. Hbg.
Description: as §1, §2, §3, §4, §5, §6, §7

[6] = test system: Klebsiella pneumoniae BC 6; conditions: BC6, liquid medium, 18 to 20 h at 37°C, read-out: MHK-Werte Kl. pneum. BC 6
Description: as §1, §2, §3, §4, §5, §6, §7

Proteus rettgeri BC 7 = conditions: Providencia rettgeri, BC7; liquid medium, 18 to 20 h at 37°C; read-out: MHK-Werte Prot. rettg. BC 7
Description: as §1, §2, §3, §4, §5, §6, §7

[7] = test system: Escherichia coli ATCC 11 775; conditions: ATCC11, liquid medium, 18 to 20 h at 37°C, read-out: MHK-Werte E.coli ATCC 11 755
Description: as §1, §2, §3, §4, §5, §6, §7

[8] = test system: Pseudomonas aeruginosa Hamburgensis; conditions: liquid medium, 18 to 20 h at 37°C, read-out: MHK-Werte Pseud. aerug. Hbg.
Description: as §1, §2, §3, §4, §5, §6, §7

[9] = test system: Staphylococcus aureus SG 511; conditions: SG511, liquid medium, 18 to 20 h at 37°C, read-out: MHK-Werte Staph. aureus SG 511
Description: as §1, §2, §3, §4, §5, §6, §7

Row | Structure (SMILES) | MIC [1] | MIC [2] | MIC [3] | MIC [4] | MIC [5] | MIC [6] | MIC (Proteus rettgeri BC 7) | MIC [7] | MIC [8] | MIC [9]
1 | CC1(C)S[C@@H]2[C@H](NC(=O)[C@H](NC(=O)Nc3cnccc3O)c3ccccc3)C(=O)N2[C@H]1C(=O)O [C, D-α-[(4-Hydroxy-3-pyridyl)-ureido]-benzylpenicillin-Natrium, reference compound] | 32 µg/mL (≈ 65.9 µM) | 8 µg/mL (≈ 16.5 µM) | 0.5 µg/mL (≈ 1.03 µM) | 8 µg/mL (≈ 16.5 µM) | 0.25 µg/mL (≈ 0.515 µM) | 32 µg/mL (≈ 65.9 µM) | 1 µg/mL (≈ 2.06 µM) | 2 µg/mL (≈ 4.12 µM) | 8 µg/mL (≈ 16.5 µM) | –
2 | CC1(C)S[C@@H]2[C@H](NC(=O)[C@H](NC(=O)Nc3cnc(Nc4ccc(S(N)(=O)=O)cc4)nc3O)c3cccs3)C(=O)N2[C@H]1C(=O)O [Verbindung 2] | 2 µg/mL (≈ 3.02 µM) | 2 µg/mL (≈ 3.02 µM) | 0.25 µg/mL (≈ 0.377 µM) | 2 µg/mL (≈ 3.02 µM) | 0.06 µg/mL (≈ 0.0905 µM) | 1 µg/mL (≈ 1.51 µM) | 0.5 µg/mL (≈ 0.754 µM) | 0.5 µg/mL (≈ 0.754 µM) | 4 µg/mL (≈ 6.04 µM) | 0.12 µg/mL (≈ 0.181 µM)
3 | CC1(C)S[C@@H]2[C@H](NC(=O)[C@H](NC(=O)Nc3cnc(Nc4cccc(S(N)(=O)=O)c4)nc3O)c3ccc(O)cc3)C(=O)N2[C@H]1C(=O)O [Verbindung 5] | 2 µg/mL (≈ 2.97 µM) | 1 µg/mL (≈ 1.49 µM) | 0.25 µg/mL (≈ 0.372 µM) | 2 µg/mL (≈ 2.97 µM) | 0.06 µg/mL (≈ 0.0892 µM) | 2 µg/mL (≈ 2.97 µM) | 0.25 µg/mL (≈ 0.372 µM) | 0.25 µg/mL (≈ 0.372 µM) | 2 µg/mL (≈ 2.97 µM) | 0.5 µg/mL (≈ 0.743 µM)
4 | CNS(=O)(=O)c1ccc(Nc2ncc(NC(=O)N[C@@H](C(=O)N[C@@H]3C(=O)N4[C@@H]3SC(C)(C)[C@@H]4C(=O)O)c3ccccc3)c(O)n2)cc1 [Verbindung 8] | 0.5 µg/mL (≈ 0.745 µM) | 0.5 µg/mL (≈ 0.745 µM) | 0.12 µg/mL (≈ 0.179 µM) | 2 µg/mL (≈ 2.98 µM) | 0.03 µg/mL (≈ 0.0447 µM) | 1 µg/mL (≈ 1.49 µM) | 0.5 µg/mL (≈ 0.745 µM) | 0.12 µg/mL (≈ 0.179 µM) | 1 µg/mL (≈ 1.49 µM) | 0.12 µg/mL (≈ 0.179 µM)
5 | CNS(=O)(=O)c1ccc(Nc2ncc(NC(=O)N[C@@H](C(=O)N[C@@H]3C(=O)N4[C@@H]3SC(C)(C)[C@@H]4C(=O)O)c3ccc(O)c(Cl)c3)c(O)n2)cc1 [Verbindung 13] | 2 µg/mL (≈ 2.77 µM) | 1 µg/mL (≈ 1.39 µM) | 0.25 µg/mL (≈ 0.347 µM) | 2 µg/mL (≈ 2.77 µM) | 0.25 µg/mL (≈ 0.347 µM) | 1 µg/mL (≈ 1.39 µM) | 0.5 µg/mL (≈ 0.693 µM) | 0.25 µg/mL (≈ 0.347 µM) | 2 µg/mL (≈ 2.77 µM) | 0.25 µg/mL (≈ 0.347 µM)
6 | CN(C)S(=O)(=O)c1ccc(Nc2ncc(NC(=O)N[C@@H](C(=O)N[C@@H]3C(=O)N4[C@@H]3SC(C)(C)[C@@H]4C(=O)O)c3ccc(O)cc3)c(O)n2)cc1 [Verbindung 15] | 1 µg/mL (≈ 1.43 µM) | 2 µg/mL (≈ 2.85 µM) | 0.25 µg/mL (≈ 0.357 µM) | 2 µg/mL (≈ 2.85 µM) | 0.12 µg/mL (≈ 0.171 µM) | 1 µg/mL (≈ 1.43 µM) | 1 µg/mL (≈ 1.43 µM) | 0.25 µg/mL (≈ 0.357 µM) | 2 µg/mL (≈ 2.85 µM) | 0.5 µg/mL (≈ 0.714 µM)
7 | CC1(C)SC2C(NC(=O)C(NC(=O)Nc3cnc(Nc4ccc(S(C)(=O)=O)cc4)nc3O)c3ccc(O)c(Cl)c3)C(=O)N2C1C(=O)O (stereo not drawn) [Verbindung 25] | 1 µg/mL (≈ 1.42 µM) | 4 µg/mL (≈ 5.66 µM) | 0.25 µg/mL (≈ 0.354 µM) | 2 µg/mL (≈ 2.83 µM) | 0.12 µg/mL (≈ 0.17 µM) | 1 µg/mL (≈ 1.42 µM) | 0.5 µg/mL (≈ 0.708 µM) | 0.25 µg/mL (≈ 0.354 µM) | 2 µg/mL (≈ 2.83 µM) | 0.25 µg/mL (≈ 0.354 µM)
8 | CCCCS(=O)(=O)c1ccc(Nc2ncc(NC(=O)NC(C(=O)NC3C(=O)N4C3SC(C)(C)C4C(=O)O)c3ccc(O)cc3)c(O)n2)cc1 (stereo not drawn) [Verbindung 32] | 1 µg/mL (≈ 1.4 µM) | 1 µg/mL (≈ 1.4 µM) | 0.12 µg/mL (≈ 0.168 µM) | 1 µg/mL (≈ 1.4 µM) | 0.06 µg/mL (≈ 0.0841 µM) | 0.5 µg/mL (≈ 0.7 µM) | 0.25 µg/mL (≈ 0.35 µM) | 0.12 µg/mL (≈ 0.168 µM) | 2 µg/mL (≈ 2.8 µM) | 0.12 µg/mL (≈ 0.168 µM)
9 | CC1(C)SC2C(NC(=O)C(NC(=O)Nc3cnc(Nc4ccc(C(N)=O)cc4)nc3O)c3ccc(O)c(Cl)c3)C(=O)N2C1C(=O)O (stereo not drawn) [Verbindung 35] | 4 µg/mL (≈ 5.96 µM) | 4 µg/mL (≈ 5.96 µM) | 0.5 µg/mL (≈ 0.745 µM) | 4 µg/mL (≈ 5.96 µM) | 0.25 µg/mL (≈ 0.373 µM) | 4 µg/mL (≈ 5.96 µM) | 0.5 µg/mL (≈ 0.745 µM) | 0.5 µg/mL (≈ 0.745 µM) | 2 µg/mL (≈ 2.98 µM) | 0.5 µg/mL (≈ 0.745 µM)
10 | CC1(C)SC2C(NC(=O)C(NC(=O)Nc3cnc(Nc4ccc(S(N)(=O)=O)c(O)c4)nc3O)c3ccc(O)c(Cl)c3)C(=O)N2C1C(=O)O (stereo not drawn) [Verbindung 49] | 1 µg/mL (≈ 1.38 µM) | 1 µg/mL (≈ 1.38 µM) | 0.25 µg/mL (≈ 0.346 µM) | 2 µg/mL (≈ 2.77 µM) | 0.12 µg/mL (≈ 0.166 µM) | 1 µg/mL (≈ 1.38 µM) | 0.5 µg/mL (≈ 0.691 µM) | 0.25 µg/mL (≈ 0.346 µM) | 2 µg/mL (≈ 2.77 µM) | 0.25 µg/mL (≈ 0.346 µM)
11 | CC1(C)S[C@@H]2[C@H](NC(=O)C(NC(=O)Nc3cnc(Nc4ccc(C(N)=O)c(C(N)=O)c4)nc3O)c3ccc(O)cc3)C(=O)N2[C@H]1C(=O)O (stereo partly drawn) [Verbindung 55] | 2 µg/mL (≈ 2.94 µM) | 2 µg/mL (≈ 2.94 µM) | 0.25 µg/mL (≈ 0.368 µM) | 1 µg/mL (≈ 1.47 µM) | 0.12 µg/mL (≈ 0.177 µM) | 4 µg/mL (≈ 5.89 µM) | 0.5 µg/mL (≈ 0.736 µM) | 0.25 µg/mL (≈ 0.368 µM) | 1 µg/mL (≈ 1.47 µM) | 0.25 µg/mL (≈ 0.368 µM)
12 | CC(=O)Oc1ccc(CNc2ncc(NC(=O)NC(C(=O)N[C@@H]3C(=O)N4[C@@H]3SC(C)(C)[C@@H]4C(=O)O)c3ccc(O)cc3)c(O)n2)cc1 (stereo partly drawn) [Verbindung 59] | 4 µg/mL (≈ 6.01 µM) | 2 µg/mL (≈ 3 µM) | 0.5 µg/mL (≈ 0.751 µM) | 2 µg/mL (≈ 3 µM) | 0.06 µg/mL (≈ 0.0901 µM) | 4 µg/mL (≈ 6.01 µM) | 1 µg/mL (≈ 1.5 µM) | 0.5 µg/mL (≈ 0.751 µM) | 2 µg/mL (≈ 3 µM) | 0.5 µg/mL (≈ 0.751 µM)
13 | CC1(C)S[C@@H]2[C@H](NC(=O)C(NC(=O)Nc3cnc(NCc4ccc(F)cc4)nc3O)c3ccc(O)cc3)C(=O)N2[C@H]1C(=O)O (stereo partly drawn) [Verbindung 60] | 2 µg/mL (≈ 3.2 µM) | 1 µg/mL (≈ 1.6 µM) | 0.5 µg/mL (≈ 0.799 µM) | 2 µg/mL (≈ 3.2 µM) | 0.25 µg/mL (≈ 0.4 µM) | 2 µg/mL (≈ 3.2 µM) | 0.5 µg/mL (≈ 0.799 µM) | 0.25 µg/mL (≈ 0.4 µM) | 2 µg/mL (≈ 3.2 µM) | 0.25 µg/mL (≈ 0.4 µM)
